The values that follow come from publication PMC11640942, “The Role of Medium Polarity in the Efficiency of Albumin Binding with Hydrophobic Ligands: Experimental Studies and a Molecular Dynamics Investigation” (International Journal of Molecular Sciences, 2024).

Values after ≈ are worked out from the molar mass of the structure shown. Read-outs that look alike come from different tables or passages of the source.

Series [1] deals with T1, human serum albumin (HSA) (Homo sapiens, UniProt P02768).
T1 construct: purchased Sigma-Aldrich Chemical Co. (St. Louis, MO, USA)
Briefly: Time-resolved fluorescence (average lifetime) of DPH, free and complexed with HSA. As for the experimental part:
The measurements were performed using a mini-tau filter-based fluorescence lifetime spectrometer coupled to a Time-Correlated Single Photon Counting (TCSPC) system (Edinburgh Instruments, Livingston, UK). The excitation was performed using a 370 ± 10 nm picosecond pulsed laser, and the emission was using a […] interference filter. The fluorescence decays were fitted using the multi-exponential decay model, Equation (5), and the average lifetime <τ> was calculated using Equation (6). The quality of the fit was assessed by χ^2 values and residuals. […] (5) IT=∑i=1nfie^−T/τi (6) <τ>=∑i=1nfiτi

Series [2] addresses T1, human serum albumin (HSA). Briefly: Binding constants of DPH and OG with HSA by increase in the probe's fluorescence (titration with HSA). As to the method:
The slit widths were set at 10 nm for both excitation and emission wavelengths, and a 3 mL quartz cuvette with a 10 mm path length and that was magnetically stirred was used during the measurements. The experiments were performed in pure water or solutions containing 1.0 mol L^−1 NaCl, 10 and 20% (w/w) of 1,4-dioxane. […] After each addition, the mixtures were incubated for 2 min before the fluorescence measurements. Equation (2) was applied to determine the binding constant. […] The association constant (Ka) was calculated as 1/Kd. The same experimental protocol was used to determine the binding constant with OG. In this case, the fixed amount of OG was 5.0 µmol L^−1 and HSA 0–25.0 µmol L^−1. The excitation was set at 305 nm, and the emission was 320 to 450 nm. The non-linear fitting was obtained using the GraphPad Prism version 8.00 for Windows (GraphPad Software, San Diego, CA, USA). (2) F−F0/F∞−F0=L+[P]+Kd−L+[P]+Kd)^2−4[L][P]/2[L]

The target in series [3] is T1, human serum albumin (HSA). In words: Binding of quercetin or rutin with HSA by quenching of the protein's intrinsic fluorescence. Particulars: pure water vs 20% 1,4-dioxane, fit to Equation (3). As for the experimental part: The interactions between HSA and quercetin or rutin were evaluated by quenching the intrinsic fluorescence of the protein. The excitation was set at 295 nm, and the emission at 310 to 410 nm. […] After each addition of the ligands, the mixtures were incubated for 2 min before the fluorescence measurements. […] Since a 1:1 complex was assumed, n was set as 1. Therefore, Kd and Φ were treated as the fitting parameters in the non-linear least-squares analysis. Before determining the binding constants, the fluorescent intensities were corrected for the inner filter effect (Equation (4)) caused by the attenuation of the excitation and emission signals provoked by the light absorption of the flavonoids. Fcorr and Fobs are the corrected and observed fluorescence. Abex and Abem are the absorptions of the mixture at excitation and emission wavelength, respectively. The absorbance spectra were measured using a Perkin Elmer Lambda 35 UV-visible spectrophotometer (Shelton, CT, USA), and the fluorescence spectra were obtained using a Perkin Elmer LS 55 spectrofluorometer (Shelton, CT, USA). (3) Fratio=1-Φ[([…])/2nP0] (4) Fcorr=Fobs×10^Abex+Abem/2

For series [4] the following is noted: cited from earlier work.
For series [5] the following is noted: cited from earlier work. This is another data set of the same source.
[6] abbreviates: 1,4-dioxane 0% (pure water), 25 °C, fit to Equation (2), read-out: association constant Ka (converted).
[7] abbreviates: 1,4-dioxane 20% w/w, 25 °C, fit to Equation (2), read-out: association constant Ka (converted).

T1 sequence (P02768 25-609): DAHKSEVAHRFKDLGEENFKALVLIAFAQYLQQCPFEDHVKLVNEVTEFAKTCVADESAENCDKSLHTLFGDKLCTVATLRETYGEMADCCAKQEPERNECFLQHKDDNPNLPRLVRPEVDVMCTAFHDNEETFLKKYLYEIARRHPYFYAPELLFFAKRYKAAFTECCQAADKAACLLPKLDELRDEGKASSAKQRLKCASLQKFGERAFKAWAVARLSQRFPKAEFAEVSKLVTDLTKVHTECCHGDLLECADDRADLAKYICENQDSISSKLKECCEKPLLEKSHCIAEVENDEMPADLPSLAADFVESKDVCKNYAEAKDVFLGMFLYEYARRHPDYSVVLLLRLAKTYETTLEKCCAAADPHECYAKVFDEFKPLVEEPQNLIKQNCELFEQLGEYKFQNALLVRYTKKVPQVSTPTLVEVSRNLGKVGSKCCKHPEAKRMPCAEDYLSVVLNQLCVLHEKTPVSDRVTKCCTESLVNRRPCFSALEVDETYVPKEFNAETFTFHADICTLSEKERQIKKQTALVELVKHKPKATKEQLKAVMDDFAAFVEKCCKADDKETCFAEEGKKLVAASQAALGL

Take `C(=CC=Cc1ccccc1)C=Cc1ccccc1` [DPH, 1,6-diphenyl-1,3,5-hexatriene]: the average fluorescence lifetime in series [1] (20% 1,4-dioxane with HSA added) turned out to be 7.1 nanoseconds; in series [1] (20% 1,4-dioxane, no protein), 2.6 nanoseconds; in series [1] (pure 1,4-dioxane), 7.8 nanoseconds. The Kd in series [2] (setting [6]) was 505 nM; in series [2] (1,4-dioxane 10% w/w, 25 °C, fit to Equation (2), read-out: association constant Ka (converted)), 1890 nM; in series [2] (setting [7]), 5880 nM; in series [2] (Figure 4, printed as (10%) 1,4-dioxane, read-out: Ka (means and SD of triplicates) (converted)), 2220 nM; in series [2] (Figure 4, printed as (20%) 1,4-dioxane, read-out: Ka (means and SD of triplicates) (converted)), 485 nM; in series [2] (NaCl 1.0 mol L^−1 (dielectric constant 69.3), read-out: binding constant Ka (converted)), 4350 nM. Further, the Kd in series [2] (pure water (dielectric constant 80.3), NaCl comparison experiment, read-out: binding constant Ka (converted)) was 1010 nM. Further, the “HSA concentration needed to reach saturation” value in series [2] (1,4-dioxane (20%)) came out at 10 µM; in series [2] (pure water) it was 2.0 µM. Moreover, in series [2] (no solvent vs 1,4-dioxane), the “lower HSA concentration at saturation when the solvent was absent” value is recorded as 5 fold.

Consider `CCCCCCCCOC(=O)c1cc(O)c(O)c(O)c1` [OG, octyl gallate], for which the figures for the Kd in series [2] (setting [6]) and in series [2] (setting [7]) were 192 nM and 4550 nM, respectively. In series [2] (pure water vs 20% 1,4-dioxane), the “increase of binding constant in pure water compared to 1,4-dioxane” value is 25 fold.

Regarding `O=c1c(O)c(-c2ccc(O)c(O)c2)oc2cc(O)cc(O)c12` [quercetin], the “effect of 1,4-dioxane on binding strength” value in series [3] is “decreased”. The water solubility in series [4] was 60 µg/mL (≈ 199 µM). Besides, the logP in series [5] is reported as 0.35.

Turning to `C[C@@H]1O[C@@H](OC[C@H]2O[C@@H](Oc3c(-c4ccc(O)c(O)c4)oc4cc(O)cc(O)c4c3=O)[C@H](O)[C@@H](O)[C@@H]2O)[C@H](O)[C@H](O)[C@H]1O` [rutin], the “effect of 1,4-dioxane on binding strength” value in series [3] was “not”. Moreover, in series [5], the logP was −2.28.

For orientation: logP means the decadic logarithm of the partition coefficient of the neutral form, usually between octanol and water.
